Laboratory results reported in patent publication US20120190752A1, “EXO-S-MECAMYLAMINE METHOD, USE, AND COMPOUND FOR TREATMENT” (Targacept Inc., priority 2009, published 2012).

System: subjects with major depressive disorder (MDD) who were inadequate responders to citalopram
Assay: HAMD-17 total score, Phase 2b trial of TC-5214 as add-on to citalopram
Assay type: in vivo, human
Conditions: for HAMD-17 total score, observed Mean / HAMD-17 total score, observed Median / HAMD-17 Remission (Score ≦7): Subjects with Remission (number) / HAMD-17 Remission (Score ≦7): Subjects with Remission (percentage) / HAMD-17 Remission (Score ≦7): Subjects without Remission (number) / HAMD-17 Remission (Score ≦7): Subjects without Remission (percentage) / HAMD-17 Remission (Score ≦10): Subjects with Remission (number) / HAMD-17 Remission (Score ≦10): Subjects with Remission (percentage) / HAMD-17 Remission (Score ≦10): Subjects without Remission (number) / HAMD-17 Remission (Score ≦10): Subjects without Remission (percentage) / HAMD-17 reduction from baseline ≧50%: Subjects with Response (number) / HAMD-17 reduction from baseline ≧50%: Subjects with Response (percentage) / HAMD-17 reduction from baseline ≧50%: Subjects without Response (number) / HAMD-17 reduction from baseline ≧50%: Subjects without Response (percentage) / HAMD-17 Adjusted Mean change / HAMD-17 Mean Difference between TC-5214 and Placebo: PP; for primary outcome: mean change between TC-5214 and placebo from baseline on HAM-D (HAMD-17 total score): intent to treat, Week 8 to Week 16 LOCF, result in words
Description: The Hamilton Rating Scale for Depression (HRSD), also known as the Hamilton Depression Rating Scale (HDRS) or abbreviated to HAM-D or HAMD, is a multiple choice questionnaire that clinicians may use to rate the severity of a patient's major depression (Hamilton 1967). The questionnaire rates the severity of symptoms observed in depression such as low mood, insomnia, agitation, anxiety and weight loss. The questionnaire is presently one of the most commonly used scales for rating depression in medical research. The clinician chooses the possible responses to each question by interviewing the patient and by observing the patient's symptoms. Each question has multiple possible responses which increase in severity. Although Hamilton's original scale had 17 questions, others later developed HRSD scales with different numbers of questions, the greatest of which is 29 (HRSD-29). Clinicians can use the HRSD in place of, or in conjunction with, the Montgomery-Åsberg Depression Rating Scale (MADRS), the Beck Depression Inventory (BDI), the Zung Self-Rating Depression Scale, the Wechsler Depression Rating Scale, the […] Depression Rating Scale, the Inventory of Depressive Symptomatology (IDS), the Quick Inventory of Depressive Symptomatology (QIDS), and other questionnaires. […] The results on all of the trial's secondary efficacy measures, including assessments of depression, irritability, disability, cognition, severity of illness and global improvement, were also statistically significant in favor of TC-5214 on an intent to treat basis. The Phase 2b trial of TC-5214 as an augmentation treatment for MDD was a two-phase trial conducted at 20 sites in India and three sites in the United States. In the first phase, 579 subjects with MDD received first-line treatment with citalopram hydrobromide for eight weeks, 20 mg daily for the first four weeks and 40 mg daily for the next four weeks. Citalopram, an approved treatment for MDD marketed in the United States as […]®, is from the drug class known as selective serotonin reuptake inhibitors. At the end of the eight weeks, subjects whose MADRS score had improved less than 50 percent and whose CGI-SI score was no lower than 4 were considered partial or non responders and randomized into the double blind second phase of the trial. In the double blind second phase, subjects continued their citalopram treatment and also received either add-on TC-5214 or add-on placebo for an additional eight weeks. The daily dosage of TC-5214 was initially 2 mg and could be increased at the discretion of the investigator to 4 mg and to 8 mg based on tolerability and therapeutic response. The primary outcome measure for the trial was mean change between TC-5214 and placebo from double blind baseline as measured by HAM-D at week 16. The intent to treat dataset included 265 subjects in the second phase. In more detail, a multi-center double-blind, randomized, placebo-controlled, parallel group, flexible dose titration study of TC-5214 as adjunctive therapy in subjects with major depressive disorder (MDD) who were inadequate responders to citalopram was conducted in centers in the US and India. The study consisted of a screening period, baseline/washout period, open-label phase, double-blind phase, and a follow-up visit. Subject participation in the study could continue for up to 16 weeks of treatment. Following a washout period of up to 28 days for other antidepressants, subjects with MDD and a MADRS total score >/=28 and a Clinical Global Impression-Severity (CGI-S) score >/=4 were enrolled on Day 1 into an open-label citalopram-only phase of the study. This phase lasted 8 weeks, with citalopram (CIT) dose increased from a once-daily dose of 20 mg (Day 1 through Week 4) to 40 mg (Week 4 through Week 8). A total of 579 subjects entered the open-label citalopram phase. […]

[1] = Double Blind Week 8 (Baseline), before TC-5214
[2] = Double Blind Week 16 LOCF (change from Week 8)
[3] = Double Blind Week 18 (Follow-up)
[4] = Double Blind Week 18 LOCF (Follow-up)
[5] = Double Blind Week 18 LOCF (Follow-up), change from Week 16

CNC1(C)C2CCC(C2)C1(C)C (stereo in doubt) [TC-5214, (S)—N,2,3,3-tetramethylnorbornan-2-amine]
HAMD-17 Adj. Mean change (ITT, change from Week 8 (double-blind baseline) to Week 16 LOCF, add-on to citalopram): −13.75 | onset of separation from placebo, remission rates HAMD≦7 (FIG. 1) (ITT, week of double-blind treatment): ≤ 2 week | HAMD-17 total score, observed Mean [1]: 23.7 | HAMD-17 total score, observed Median [1]: 24.0 | HAMD-17 Remission (Score ≦7): Subjects with Remission (number) (Double Blind Week 9): 1 | HAMD-17 Remission (Score ≦7): Subjects with Remission (percentage) (Double Blind Week 9): (1%) | HAMD-17 Remission (Score ≦7): Subjects without Remission (number) (Double Blind Week 9): 112 | HAMD-17 Remission (Score ≦7): Subjects without Remission (percentage) (Double Blind Week 9): (99%) | HAMD-17 Remission (Score ≦10): Subjects with Remission (number) (Double Blind Week 9): 3 | HAMD-17 Remission (Score ≦10): Subjects with Remission (percentage) (Double Blind Week 9): (3%) | HAMD-17 Remission (Score ≦10): Subjects without Remission (number) (Double Blind Week 9): 110 | HAMD-17 Remission (Score ≦10): Subjects without Remission (percentage) (Double Blind Week 9): (97%) | HAMD-17 reduction from baseline ≧50%: Subjects with Response (number) (Double Blind Week 9): 3 | HAMD-17 reduction from baseline ≧50%: Subjects with Response (percentage) (Double Blind Week 9): (3%) | HAMD-17 reduction from baseline ≧50%: Subjects without Response (number) (Double Blind Week 9): 110 | HAMD-17 reduction from baseline ≧50%: Subjects without Response (percentage) (Double Blind Week 9): (97%) | HAMD-17 Remission (Score ≦7): Subjects with Remission (number) (Double Blind Week 10): 4 | HAMD-17 Remission (Score ≦7): Subjects with Remission (percentage) (Double Blind Week 10): (4%) | HAMD-17 Remission (Score ≦7): Subjects without Remission (number) (Double Blind Week 10): 109 | HAMD-17 Remission (Score ≦7): Subjects without Remission (percentage) (Double Blind Week 10): (96%) | HAMD-17 Remission (Score ≦10): Subjects with Remission (number) (Double Blind Week 10): 16 | HAMD-17 Remission (Score ≦10): Subjects with Remission (percentage) (Double Blind Week 10): (14%) | HAMD-17 Remission (Score ≦10): Subjects without Remission (number) (Double Blind Week 10): 97 | HAMD-17 Remission (Score ≦10): Subjects without Remission (percentage) (Double Blind Week 10): (86%) | HAMD-17 reduction from baseline ≧50%: Subjects with Response (number) (Double Blind Week 10): 20 | HAMD-17 reduction from baseline ≧50%: Subjects with Response (percentage) (Double Blind Week 10): (18%) | HAMD-17 reduction from baseline ≧50%: Subjects without Response (number) (Double Blind Week 10): 93 | HAMD-17 reduction from baseline ≧50%: Subjects without Response (percentage) (Double Blind Week 10): (82%) | HAMD-17 Remission (Score ≦7): Subjects with Remission (number) (Double Blind Week 12): 16 | HAMD-17 Remission (Score ≦7): Subjects with Remission (percentage) (Double Blind Week 12): (14%) | HAMD-17 Remission (Score ≦7): Subjects without Remission (number) (Double Blind Week 12): 97 | HAMD-17 Remission (Score ≦7): Subjects without Remission (percentage) (Double Blind Week 12): (86%) | HAMD-17 Remission (Score ≦10): Subjects with Remission (number) (Double Blind Week 12): 36 | HAMD-17 Remission (Score ≦10): Subjects with Remission (percentage) (Double Blind Week 12): (32%) | HAMD-17 Remission (Score ≦10): Subjects without Remission (number) (Double Blind Week 12): 77 | HAMD-17 Remission (Score ≦10): Subjects without Remission (percentage) (Double Blind Week 12): (68%) | HAMD-17 reduction from baseline ≧50%: Subjects with Response (number) (Double Blind Week 12): 40 | HAMD-17 reduction from baseline ≧50%: Subjects with Response (percentage) (Double Blind Week 12): (35%) | HAMD-17 reduction from baseline ≧50%: Subjects without Response (number) (Double Blind Week 12): 73 | HAMD-17 reduction from baseline ≧50%: Subjects without Response (percentage) (Double Blind Week 12): (65%) | HAMD-17 Remission (Score ≦7): Subjects with Remission (number) (Double Blind Week 14): 35 | HAMD-17 Remission (Score ≦7): Subjects with Remission (percentage) (Double Blind Week 14): (31%) | HAMD-17 Remission (Score ≦7): Subjects without Remission (number) (Double Blind Week 14): 78 | HAMD-17 Remission (Score ≦7): Subjects without Remission (percentage) (Double Blind Week 14): (69%) | HAMD-17 Remission (Score ≦10): Subjects with Remission (number) (Double Blind Week 14): 53 | HAMD-17 Remission (Score ≦10): Subjects with Remission (percentage) (Double Blind Week 14): (47%) | HAMD-17 Remission (Score ≦10): Subjects without Remission (number) (Double Blind Week 14): 60 | HAMD-17 Remission (Score ≦10): Subjects without Remission (percentage) (Double Blind Week 14): (53%) | HAMD-17 reduction from baseline ≧50%: Subjects with Response (number) (Double Blind Week 14): 67 | HAMD-17 reduction from baseline ≧50%: Subjects with Response (percentage) (Double Blind Week 14): (59%) | HAMD-17 reduction from baseline ≧50%: Subjects without Response (number) (Double Blind Week 14): 46 | HAMD-17 reduction from baseline ≧50%: Subjects without Response (percentage) (Double Blind Week 14): (41%) | HAMD-17 Remission (Score ≦7): Subjects with Remission (number) (Double Blind Week 16): 50 | HAMD-17 Remission (Score ≦7): Subjects with Remission (percentage) (Double Blind Week 16): (44%) | HAMD-17 Remission (Score ≦7): Subjects without Remission (number) (Double Blind Week 16): 63 | HAMD-17 Remission (Score ≦7): Subjects without Remission (percentage) (Double Blind Week 16): (56%) | HAMD-17 Remission (Score ≦10): Subjects with Remission (number) (Double Blind Week 16): 75 | HAMD-17 Remission (Score ≦10): Subjects with Remission (percentage) (Double Blind Week 16): (66%) | HAMD-17 Remission (Score ≦10): Subjects without Remission (number) (Double Blind Week 16): 38 | HAMD-17 Remission (Score ≦10): Subjects without Remission (percentage) (Double Blind Week 16): (34%) | HAMD-17 reduction from baseline ≧50%: Subjects with Response (number) (Double Blind Week 16): 84 | HAMD-17 reduction from baseline ≧50%: Subjects with Response (percentage) (Double Blind Week 16): (74%) | HAMD-17 reduction from baseline ≧50%: Subjects without Response (number) (Double Blind Week 16): 29 | HAMD-17 reduction from baseline ≧50%: Subjects without Response (percentage) (Double Blind Week 16): (26%) | HAMD-17 total score, observed Mean (Double Blind Week 16 LOCF): 9.1 | HAMD-17 total score, observed Median (Double Blind Week 16 LOCF): 8.0 | HAMD-17 Adjusted Mean change [2]: −14.64 | HAMD-17 Mean Difference between TC-5214 and Placebo [2]: 6.10 | HAMD-17 Remission (Score ≦7): Subjects with Remission (number) [3]: 58 | HAMD-17 Remission (Score ≦7): Subjects with Remission (percentage) [3]: (51%) | HAMD-17 Remission (Score ≦7): Subjects without Remission (number) [3]: 55 | HAMD-17 Remission (Score ≦7): Subjects without Remission (percentage) [3]: (49%) | HAMD-17 Remission (Score ≦10): Subjects with Remission (number) [3]: 77 | HAMD-17 Remission (Score ≦10): Subjects with Remission (percentage) [3]: (68%) | HAMD-17 Remission (Score ≦10): Subjects without Remission (number) [3]: 36 | HAMD-17 Remission (Score ≦10): Subjects without Remission (percentage) [3]: (32%) | HAMD-17 reduction from baseline ≧50%: Subjects with Response (number) [3]: 83 | HAMD-17 reduction from baseline ≧50%: Subjects with Response (percentage) [3]: (73%) | HAMD-17 reduction from baseline ≧50%: Subjects without Response (number) [3]: 30 | HAMD-17 reduction from baseline ≧50%: Subjects without Response (percentage) [3]: (27%) | HAMD-17 total score, observed Mean [4]: 8.6 | HAMD-17 total score, observed Median [4]: 7.0 | HAMD-17 Adjusted Mean change [5]: −0.83 | HAMD-17 Mean Difference between TC-5214 and Placebo [5]: −0.01 | primary outcome: mean change between TC-5214 and placebo from baseline on HAM-D (HAMD-17 total score): highly statistically significant in favor of TC-5214 | primary outcome: mean change between TC-5214 and placebo from baseline on HAM-D (HAMD-17 total score) (listed as TC-5214-23): statistically significant favoring TC-5214-23
